Laboratory results published in US9681664B2, “Macrocyclic picolinamides as fungicides” (Dow Agrosciences LLC, priority 2012, dated 2017).
Read-outs that look alike come from different tables or passages of the source.

Assays:
Type in all cases: in vivo
[1] = system: Puccinia triticina; Synonym: Puccinia recondite f. sp. tritici; assay: Wheat brown rust (PUCCRT) disease control on wheat seedlings; settings: Puccinia triticina, High volume application, 100 ppm
Procedure, shortened: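 Yuma wheat grown to first fully emerged leaf was inoculated with Puccinia triticina spore suspension either before or after fungicide treatment, held overnight at 22° C. and 100% RH in darkness, then kept at 24° C. Fungicide applied by booth sprayer to run-off (acetone/water, 110 ppm Triton X-100) or as EC by track spray.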

[2] = system: Venturia inaequalis; assay: Apple scab (VENTIN) disease control; settings: 24 h, High volume application, 1 Day Protectant, read-out: VENTIN 1 DP disease control
Experimental: Technical grades of materials were dissolved in acetone, which were then mixed with nine volumes of water containing 110 ppm Triton X-100. The fungicide solutions were applied onto wheat seedlings using an automated booth sprayer to run-off. All sprayed plants were allowed to air dry prior to further handling. All fungicides were evaluated using the aforementioned method for their activity vs. all target diseases. Wheat leaf blotch and brown rust activity were also evaluated using track spray applications, in which case the fungicides were formulated as EC formulations, containing 0.1% Trycol 5941 in the spray solutions. Apple seedlings (variety McIntosh) were grown in soil-less Metro mix, with one plant per pot. Seedlings with two expanding young leaves at the top (older leaves at bottom of the plants were trimmed) were used in the test. Plants were inoculated with a spore suspension of Venturia inaequalis 24 hr after fungicide treatment and kept in a 22° C. dew chamber with 100% RH for 48 hr, and then moved to a greenhouse set at 20° C. for disease to develop. Fungicide formulation, application and disease assessment on the sprayed leaves followed the procedures as described in the Example A.

[3] = system: Uncinula necator; assay: Grape powdery mildew (UNCINE) disease control; settings: Erysiphe necator, 24 h, High volume application, 1 Day Protectant, read-out: UNCINE 1 DP disease control
Experimental: Technical grades of materials were dissolved in acetone, which were then mixed with nine volumes of water containing 110 ppm Triton X-100. The fungicide solutions were applied onto wheat seedlings using an automated booth sprayer to run-off. All sprayed plants were allowed to air dry prior to further handling. All fungicides were evaluated using the aforementioned method for their activity vs. all target diseases. Wheat leaf blotch and brown rust activity were also evaluated using track spray applications, in which case the fungicides were formulated as EC formulations, containing 0.1% Trycol 5941 in the spray solutions. Grape seedlings (variety Carignane) were grown in soil-less Metro mix, with one plant per pot, and used in the test when approximately one month old. Plants were inoculated 24 hr after fungicide treatment by shaking spores from infected leaves over test plants. Plants were maintained in a greenhouse set at 20° C. until disease was fully developed. Fungicide formulation, application and disease assessment on the sprayed leaves followed the procedures as described in the Example A.

[4] = system: Erysiphe cichoracearum; assay: Powdery mildew of cucumber (ERYSCI) disease control; settings: Golovinomyces cichoracearum, 24 h, 1 Day Protectant, high volume, read-out: Disease Control ERYSCI 1 DP
Experimental: Technical grades of materials were dissolved in acetone, which were then mixed with nine volumes of water containing 110 ppm Triton X-100. The fungicide solutions were applied onto wheat seedlings using an automated booth sprayer to run-off. All sprayed plants were allowed to air dry prior to further handling. All fungicides were evaluated using the aforementioned method for their activity vs. all target diseases. Wheat leaf blotch and brown rust activity were also evaluated using track spray applications, in which case the fungicides were formulated as EC formulations, containing 0.1% Trycol 5941 in the spray solutions. Cucumber seedlings (variety Bush Pickle) were grown in soil-less Metro mix, with one plant per pot, and used in the test when 12 to 14 days old. Plants were inoculated with a spore suspension 24 hr following fungicide treatments. After inoculation the plants remained in the greenhouse set at 20° C. until disease was fully expressed. Fungicide formulation, application and disease assessment on the sprayed leaves followed the procedures as described in the Example A.

[5] = system: Blumeria graminis f. sp. tritici; Synonym: Erysiphe graminis f. sp. tritici; assay: Wheat powdery mildew (ERYSGT) disease control; settings: 24 h, 1 Day Protectant, high volume, read-out: Disease Control ERYSGT 1 DP
Experimental: Technical grades of materials were dissolved in acetone, which were then mixed with nine volumes of water containing 110 ppm Triton X-100. The fungicide solutions were applied onto wheat seedlings using an automated booth sprayer to run-off. All sprayed plants were allowed to air dry prior to further handling. All fungicides were evaluated using the aforementioned method for their activity vs. all target diseases. Wheat leaf blotch and brown rust activity were also evaluated using track spray applications, in which case the fungicides were formulated as EC formulations, containing 0.1% Trycol 5941 in the spray solutions. Wheat plants (variety Yuma) were grown from seed in a greenhouse in 50% mineral soil/50% soil-less Metro mix until the first leaf was fully emerged, with 7-10 seedlings per pot. These plants were inoculated by dusting with infected stock plants 24 hr after fungicide treatments. After inoculation the plants were kept in a greenhouse set at 20° C. for disease to develop. Fungicide formulation, application and disease assessment on the sprayed leaves followed the procedures as described in the Example A.

[6] = system: Glomerella lagenarium; Anamorph: Colletotrichum lagenarium; assay: Cucumber anthracnose (COLLLA) disease control; settings: Colletotrichum orbiculare, 24 h, 1 Day Protectant, high volume, read-out: Disease Control COLLLA 1 DP
Procedure, shortened: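 Compounds were dissolved in acetone, diluted with nine volumes of water containing 110 ppm Triton X-100 and sprayed to run-off on 12–14-day-old Bush Pickle cucumber seedlings. Plants were spore-inoculated 24 hr later and held 48 hr at 22 °C and 100% RH, then in a 22 °C growth room. Disease on sprayed leaves was then assessed.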

## COc1ccnc(C(=O)N[C@H]2CCC[C@H](OCC(C)C)[C@@H](OC3CCCC3)[C@H](C)OC2=O)c1OCOC(C)=O [F39]
[1]; 24 h, 1 Day Protectant, read-out: PUCCRT 1DP disease control
  pest or weed control at 100 ppm: 80 to 100%
[1]; 72 h, 3 Day Curative, read-out: PUCCRT 3DC disease control
  pest or weed control at 100 ppm: 80 to 100%
[2]
  pest or weed control at 100 ppm: 80 to 100%
[3]
  pest or weed control at 100 ppm: 0 to 80%
[4]
  pest or weed control at 100 ppm: 80 to 100%
[5]
  pest or weed control at 100 ppm: 80 to 100%
[6]
  pest or weed control at 100 ppm: 80 to 100%
